“Also recorded” adds a separate entry of the source. Bridges are numbered along the chain shown (N, C = ends).
Columns and labels:
LPS-stimulated cells = settings: cited from earlier work
[1] = system: Escherichia coli ML35, Staphylococcus aureus 502A, Candida albicans, Cryptococcus neoformans; test: Microbicidal and agar diffusion assays in low salt diluents; type: cell-based, bacteria and fungi; settings: low salt conditions, absence of physiologic salt
Method: The antimicrobial activities of various theta defensin compounds were measured using a diffusion assay against bacteria (Staphylococcus aureus 502a and Escherichia coli ML35) and fungi (Candida albicans 16820 and Cryptococcus neoformans 271A). The antimicrobial activities were determined in an agar diffusion assay as described previously (Osapay et al., J. Biol. Chem. 275:12017-12022 (2000)). Briefly, 10-μl wells were bored in a 9-cm^2 plate of agarose, buffered with 10 mM 1,4-piperazine-bis(ethanesulfonic acid) (PIPES), pH 7.4, containing 5 mM glucose, and seeded with 1×10^6 mid-log phase cells. Five-μl aliquots of each peptide, dissolved in 0.01% acetic acid (HOAc) at 10-300 μg/ml, were added to each well. After incubation at 37° C. for 2 h, the seeded agar was overlaid with molten agarose containing 6% trypticase soy broth (for bacteria) or Sabouraud dextrose broth (for fungi). Plates were incubated at 37° C. for 18-24 h, and antimicrobial activity was determined by measuring the diameter of clearing around each well.
(§1) The microbicidal activities of various theta defensin peptides were determined by incubating 2×10^6 CFU/ml with peptides (0-100 μg/ml) in 50 μl of low salt diluents: 10 mM PIPES buffer containing 5 mM glucose, pH 7.4, 10 mM Tris-HCl, pH 7.4, or 10 mM sodium phosphate, pH 7.4, or the same diluents supplemented with 25 to 154 mM NaCl. After 2 h incubation at 37° C., the cell suspensions were diluted 1:50 with 10 mM sodium phosphate buffer, pH 7.4, and exponentially spread with an Autoplate 400 (Spiral Biotech, MD) onto trypticase soy agar (bacteria) or Sabouraud dextrose agar (fungi). After incubation at 37° C. for 18-48 h, colonies were counted and cell survival was expressed as CFU/ml.
FIGS. 2-4 show the results of microbicidal assays performed with various theta defensins and protegrin. Cells were incubated for 2 hours at 37° C. in 10 mM PIPES, pH 7.4, and 5 mM glucose, as described above.
FIGS. 5-8 show antimicrobial activities of various theta defensins as measured using the diffusion assay. […]

Human PBMCs = test: TNFα release from LPS-stimulated PBMCs; type: cell-based; settings: LPS 10 μg/ml, RTD-1 0.1-10 μg/ml, supernatants after 3 days
Method: Human PBMCs were prepared by the dextran sedimentation method and resuspended in Iscove's Modified Dulbecco's Medium containing 10% fetal bovine serum. […] Under conditions shown in A-C, aliquots containing 0.5−1×10^6 PBMCs were incubated with 10 μg/ml lipopolysaccharide (LPS) for 2 hours at 37° C., 5% CO2, then treated with RTD-1 (A: 10 μg/ml, B: 1 μg/ml, C, 0.1 μg/ml). Under conditions shown in D-E, a mixture of LPS (10 μg/ml) and RTD-1 (D: 10 μg/ml, E: 1 μg/ml, F: 0.1 μg/ml) were incubated for 2 hours at 37° C. then added to PBMC. Under conditions shown in G-L, control incubations were performed in which PBMCs were incubated with either 10 μg/ml LPS (G), 1 μg/ml phorbol 12-myristate 13-acetate (PMA) (H), varying concentrations of RTD-1 (1:10 μg/ml, J:1 μg/ml, K:0.1 μg/ml), or in media (L). Supernatants from these incubations were harvested after 3 days and soluble TNF was measured using Human TNF ELISA Kit II (BD Biosciences, San Diego). Results were obtained from duplicate incubations.

[2] = system: S. aureus and E. coli ML35; test: Antimicrobial activities in physiological salts and serum; type: cell-based; settings: NaCl, CaCl2, MgCl2; 10% human serum
Method: as §1
(§2) Staphylocidal activities of theta defensins and protegrin were assayed in various buffers and salt concentrations. Log-phase bacteria were incubated for 2 h at 37° C. with increasing concentrations of the peptides (FIG. 9). Cells were incubated with increasing concentrations of RTD-1 (filled circles), RTD-2 (filled triangles), RTD-3 (filled squares), and PG-1 (filled diamonds) in 10 mM PIPES (FIG. 9A), 10 mM Tris-Cl (FIG. 9B), or 10 mM sodium phosphate (FIG. 9C), at pH 7.4, containing 154 mM NaCl.
The bactericidal activities of theta defensins against E. coli in various physiological salt concentrations were also tested. […] Killing of E. coli ML35 was measured by incubating increasing concentrations of RTD-1 (filled circles), RTD-2 (filled triangles), RTD-3 (filled squares), and PG-1 (filled diamonds) with log-phase E. coli ML35 in 10 mM PIPES, pH 7.4, with CaCl2 (1.2 mM) (FIG. 10A), MgCl2 (0.8 mM) (FIG. 10B), or in control incubations where the divalent salts were omitted (FIG. 10C).
The activities of theta defensins in the presence of serum were also analyzed. […] Dose-dependent bactericidal activities of RTD-1 (filled circles), RTD-2 (filled triangles), RTD-3 (filled squares), and PG-1 (filled diamonds) against bacteria were determined in 10 mM PIPES, pH 7.4, containing 10% normal (for S. aureus) or heat-inactivated (for E. coli) human serum.

[3] = system: various theta defensin peptides
Staphylococcus aureus = test: Staphylocidal activity in buffers containing physiologic NaCl; type: cell-based; settings: 154 mM NaCl, pH 7.4, 2 h at 37° C.
Method: as §1, §2

[4] = system: primary R5 strain of HIV-1; test: Anti-HIV activity in PHA-stimulated PBMCs (p24 ELISA); type: cell-based; settings: day 7 of infection
Method: Phytohaemagglutinin (PHA)-stimulated peripheral blood mononuclear cells (PBMCs), pre-incubated for 3 hours with serial dilutions of defensins, were mixed with 1000 TCID50 (50% infectivity of susceptible cells in tissue culture) of a primary R5 strain of HIV-1. Two hours later, the cells were washed, and fresh medium containing defensin and 20 U/ml of IL-2 was added. Five days after infection, 50% of the medium was removed and replaced with fresh medium containing defensin and IL-2. On day 7 of infection, the levels of HIV protein p24 in supernatant fluid were measured by ELISA. […] The active β-defensin was human β-defensin-3.

Substance	antimicrobial activity in vitro [1]	activity in the presence of physiological salts and serum [2]	antimicrobial activity in the presence of salt compared to RTD-1 (Staphylococcus aureus)	also measured
Gly-Phe-Cys-Arg-Cys-Leu-Cys-Arg-Arg-Gly-Val-Cys-Arg-Cys-Ile-Cys-Thr-Arg (cyclo(GFCRCLCRRGVCRCICTR); disulfide 7-12, 5-14, 3-16) [RTD-1, Rhesus theta defensin, macrocyclic 18-amino acid antimicrobial peptide, heterodimer of RTD1a and RTD1b nonapeptides]	nearly indistinguishable	active	–	levels of pro-inflammatory cytokines (TNF-α, IL-1β) (LPS-stimulated cells): Reduction; extracellular release of TNFα (Human PBMCs): modulates extracellular release of TNF-a
Purified β-galactosidase	–	–	–	β-Galactosidase activity measured as the rate of o-nitrophenyl-beta-D-galactopyranoside (ONPG) hydrolysis, compared to that obtained in the absence of peptide [3]: various theta defensins inhibited β-galactosidase enzymatic activity
RTD-2: naturally occurring theta defensin, homodimer of nine-residue sequences (SEQ ID NO:4, FIG. 1) (cyclo(GFCRCICTRGFCRCICTR); not fully specified (bridges); also: homodimer of nine-residue sequences, cyclic; listed as Macaca mulatta)	nearly indistinguishable	active	more potent antimicrobial activity; also recorded: higher antimicrobial activity than RTD-1	–
RTD-3: naturally occurring theta defensin, homodimer of nine-residue sequences (SEQ ID NO:6, FIG. 1) (cyclo(GVCRCLCRRGVCRCLCRR); not fully specified (bridges); also: homodimer of nine-residue sequences, cyclic; listed as Macaca mulatta)	nearly indistinguishable	active	more potent antimicrobial activity; also recorded: higher antimicrobial activity than RTD-1	–
human β-defensin-3: human β-defensin-3, the active β-defensin in the anti-HIV assay (GIINTLQKYYCRVRGGRCAVLSCLPKEEQIGKCSTRGRKCCRRKK; Beta-defensin 103; UniProt P81534 23-67, looked up)	–	–	–	anti-HIV activity (HIV protein p24 in supernatant) [4]: active

Source: patent US20080255052A1, “Immunologic regulation by theta defensins” (priority 2004, published 2008)
